Data published in US8530404B2, “Compounds and methods for treatment of cancer” (FibroGen, Inc., priority 2005, dated 2013).

Experiments:
HCT116-GFP colon tumors = test: Orthotopically implanted human HCT116-GFP colon tumor mouse xenograft (Example 4); type: in vivo
Method: Procedures were carried out as described above for Example 3, except that the tumors of GFP-transfected H-460 cells were replaced with HCT116-GFP colon tumors, and surgical orthotopic implantation was directly into colon tissue.
The HCT116 tumor model used here is a well-characterized representative colon xenograft model. The isolation of the human HCT116 tumor cell line from a human colon carcinoma has been described. (Brattain et al (1981) Cancer Res 41:1751-1756.) To aid in the detection of tumors and metastases, HCT116 cells were transduced with genes directing the expression of fluorescent proteins (e.g., HCT116-GFP). The use of fluorescent HCT116-derived tumors in similar studies has been described previously. (Ross et al (2000) Nat Genet 24:227-235.)
HCT116-GFP tumor fragments harvested from the stock animals were transplanted into animals by surgical orthotopic implantation (SOI) as follows. The animals were anesthetized with isoflurane and the surgical area was sterilized using iodine and alcohol. After proper exposure of the colon following a lower midline abdominal incision, the serosa of the colon was removed and two pieces of 1 mm^3 tumor fragments per mouse were implanted. An 8-0 surgical suture was used to penetrate these small tumor pieces and suture them on the wall of the intestine. The intestine was then returned to the abdominal cavity. The incision in the abdominal wall was closed with a 6-0 surgical suture in one layer. The animals were kept under isoflurane anesthesia during surgery. All procedures of the operation described above were performed under a 7× magnification microscope (Olympus). Animals were kept in a barrier facility under HEPA filtration.
Administration of Compound A or 5-FU (5-Flurouracil) to the animals was initiated three days following tumor transplantation. 5-FU, a chemotherapeutic agent used as a positive control, was administered by intraperitoneal injection (60 mg/kg) at four day intervals for a total of three doses. Compound A was administered at either 20 mg/kg or 60 mg/kg three times per week. Tumor volumes were measured at day 15, day 22, and day 29.

H460 tumor cells = test: Subcutaneous H460 lung tumor xenograft, tumor growth delay study in combination with chemotherapeutics (Example 6); type: in vivo, mouse; conditions: Cmpd A 60 mg/kg p.o., paclitaxel 15 mg/kg i.v., carboplatin 120 mg/kg i.p.
Method: This study was used to determine the effect of combined treatments where compounds and methods of the invention were combined with conventional anti-tumor therapies. These experiments were performed essentially as described above in Example 3, except that 1×10^7 H460 tumor cells were implanted subcutaneously to the flanks of female Harlan nude animals. The number of animals in each group was 10. Treatments were initiated when tumors reached an average size of approximately 100 mm^3.
The study design was representative of tumor progression studies of the TGD (Tumor Growth Delay) type, using a protocol that required individual animals to be humanely euthanized after reaching a set endpoint of tumor volume greater than or equal to 2 cc.
These two chemotherapeutic agents are of two broad classes of conventional anti-tumor therapeutics: microtubule poisons (paclitaxcel); and DNA-directed agents, including the sub-classification of DNA alkylating agents (carboplatin). In tumor-bearing human patients, conventional anti-tumor therapy commonly use of one or both classes of chemotherapeutic agents.
The study was initiated with administration of conventional anti-tumor treatment or vehicle control, and followed one day after with administration of Compound A or vehicle control. […] (See Table 11 and Table 12 for compound and chemotherapeutic agent dosing schedule.)
Tumor progression was determined for each treatment group and is presented as median Time-to-Endpoint (TTE).

[1] = tested on: MDA-MB-435-GFP breast tumors; test: Orthotopically implanted human MDA-MB-435-GFP breast tumor mouse xenograft (Example 5); type: in vivo; conditions: 33 days of treatment; FIG. 1; dose not stated
Method: The experiment was conducted essentially as described above in Example 3, except that the tumors of GFP-transfected H-460 cells were replaced with MDA-MB-435-GFP breast tumors, with surgical orthotopic implantation directly into breast tissue of female CD-1 nude animals. The number of animals in each group was increased to 15. […] (See, e.g., Ross et al (2000) Nat Genet 24:227-235 and Ellison et al. Mol Pathol. (2002) 55:294-299.)
In the present MDA-MB-435-GFP breast cancer orthotopic study, administration of compound A was initiated 21 days after tumor fragment implantation to the mammary fat pad of female nude mice, at time at which the volume of primary tumors reached ˜150 mm^3. Taxotere, a positive chemotherapeutic agent control, was administered i.v. once weekly (15 mg/kg). After mean tumor volume in the vehicle control group exceeded 1 cm^3, animals were sacrificed (33 days of treatment) and primary tumors were excised from all animals and weighed.

BNIP3L gene expression = BNIP3L gene expression in Kelly neuroblastoma cells (Affymetrix microarray); type: cell-based; conditions: 20 μM, 6 hours, vs 0.5% DMSO control
Method: (§1) To identify compounds useful in the methods of the present invention, the following studies were performed. The effect of compounds of the present invention on expression of various genes associated with anti-tumor activity (e.g., genes having anti-proliferative activity, genes having pro-apoptotic activity, genes having anti-tumor activity, etc.). In these experiments, the effect of compounds on BNIP3, BNIP3L, NDRG1, CDKN1C, and REDD1/RTP801 gene expression in various types of cultured tumor cells line was examined, including Hep3B cells (human hepatocellular carcinoma), Kelly neuroblastoma cells, and MCF7 cells (human breast cancer)
(§2) The effects of various compounds of the present invention on the expression of genes associated with tumor growth and progression were examined in Kelly neuroblastoma cells as follows. Kelly neuroblastoma cells were grown in RPMI media. […]
(§3) RNA was isolated from the Kelly neuroblastoma cells using a commercial kit and used for the preparation of cDNA. BNIP3, CDKN1C, and 18S RNA levels were measured using commercial kits (18S, Applied Biosystems cat#4319413E); BNIP3, Applied Biosystems cat#HS00969293 MH). […] Kelly cell NDRG1 and BNIP3L mRNA levels were measured by Affymetrix microarray in a separate study. […]

[2] = tested on: REDD1/RTP801 gene expression; test: REDD1/RTP801 gene expression in Kelly neuroblastoma cells; type: cell-based; conditions: 20 μM, vs DMSO control
Method: as §1, §2, §3

Compound	mean tumor volume (calipers, mean +/- SD) (HCT116-GFP colon tumors; Treatment Day 15, 20 mg/kg three times per week)	mean tumor volume (calipers, mean +/- SD) (HCT116-GFP colon tumors; Treatment Day 15, 60 mg/kg three times per week)	mean tumor volume (calipers, mean +/- SD) (HCT116-GFP colon tumors; Treatment Day 22, 20 mg/kg three times per week)	mean tumor volume (calipers, mean +/- SD) (HCT116-GFP colon tumors; Treatment Day 22, 60 mg/kg three times per week)	mean tumor volume (calipers, mean +/- SD) (HCT116-GFP colon tumors; Treatment Day 29, 20 mg/kg three times per week)	mean tumor volume (calipers, mean +/- SD) (HCT116-GFP colon tumors; Treatment Day 29, 60 mg/kg three times per week)	% TGD, Percent Tumor Growth Delay (vs. Group control) (H460 tumor cells) [%]	T-C (Test-control, difference of medians) (H460 tumor cells) [days]	% TGD, Percent Tumor Growth Delay (vs. Group control) (H460 tumor cells; listed as Cmpd. A) [%]	Median TTE (Time-to-Endpoint, tumor volume >= 2 cc) (H460 tumor cells; vehicle group 16.2) [days]	reduction of mean tumor volumes compared to vehicle control [1]	fold-increase in BNIP3L mRNA expression (BNIP3L gene expression) [fold]	fold-increase in REDD1/RTP801 mRNA expression [2] [fold]
O=C(O)CNC(=O)c1nc(Cl)c2ccccc2c1O [Compound A, [(1-Chloro-4-hydroxy-isoquinoline-3-carbonyl)-amino]-acetic acid]	39 +/− 27	24 +/− 23	67 +/− 49	45 +/− 38	197 +/− 158	152 +/− 125	9	1.5	9	17.7	approximately 20%		
COc1ccc(Oc2ccc3c(O)c(C(=O)NCC(=O)O)ncc3c2)cc1 [Compound C, {[4-Hydroxy-7-(4-methoxy-phenoxy)-isoquinoline-3-carbonyl]-amino}-acetic acid]												5.9	3.6
